Assay results reported in patent US20140378306A1, “USE OF 5-PHENYL- OR 5-BENZYL-2 ISOXAZOLINE-3 CARBOXYLATES FOR IMPROVING PLANT YIELD” (Bayer Intellectual Property GmbH, priority 2011, published 2014).

Assays:
[1] = tested on: spring oilseed rape (canola); assay: Field trial: grain yield effects on spring oilseed rape (canola), postemergence treatment with IDF-Et + TBC; type: in vivo; details: 92 days after application
From the text: The trials have been carried out under natural field conditions (plot trials, 10 square meter plots, 2-4 replications). The applications have been done with seed treatment, pre- or post-emergence treatments straight (alone, 1 application) or sequential treatments e.g. seed treatment followed by pre-emergence and/or post-emergence spray applications. The pre- or post-emergence applications were made with spray applications using 100-300 l/water per hectare. The growth stage of the crops species at the time of application are reported in the result tables. The dose rates of the herbicidal active ingredients applied alone respective in sequential application are also described in the result tables. The assessments have been done via visual ratings (0-100% scale) or counting. The trials have been harvested after crops reached the full maturity. After the harvest the total weight of kernels/seeds/beets per plot was measured. The results are reported as means over 2-4 replications. The time between applications and assessments or countings/harvest are described in the result tables as well.

corn = assay: Field trial: grain yield effect on corn, sequential treatment with isoxadifen-ethyl; type: in vivo
From the text: (§1) The trials have been carried out under natural field conditions (plot trials, 10 square meter plots, 2-4 replications).
(§2) The applications have been done with seed treatment, pre- or post-emergence treatments straight (alone, 1 application) or sequential treatments e.g. seed treatment followed by pre-emergence and/or post-emergence spray applications. The pre- or post-emergence applications were made with spray applications using 100-300 l/water per hectare. The growth stage of the crops species at the time of application are reported in the result tables. The dose rates of the herbicidal active ingredients applied alone respective in sequential application are also described in the result tables.
(§3) The assessments have been done via visual ratings (0-100% scale) or counting. The trials have been harvested after crops reached the full maturity. After the harvest the total weight of kernels/seeds/beets per plot was measured. The results are reported as means over 2-4 replications. The time between applications and assessments or countings/harvest are described in the result tables as well.
(§4) The active ingredients have been applied to the untreated, dry seeds together with a carrier. After a short period of time to let the seeds dry, they were ready to be sown in the pot or field using standard equipments.

spring wheat [2] = assay: Field trial: grain yield effects on spring wheat, seed treatment with isoxadifen-ethyl; type: in vivo; details: 158 days after application
From the text: as §1, §2, §3, §4

sugarbeets [3] = assay: Field trial: sugar yield of sugarbeets, sequential application; type: in vivo, sugarbeet
From the text: as §1, §2, §3, §4

sugarbeet = assay: Field trial: yield effects on sugarbeet, sequential application of isoxadifen-ethyl; type: in vivo
From the text: as §1, §2, §3, §4

winter wheat = assay: Field trial: grain yield effects on winter wheat, postemergence treatment with isoxadifen-ethyl; type: in vivo; details: 84 days after application
From the text: as §1, §2, §3

spring wheat [4] = assay: Field trial: grain yield effects on spring wheat, postemergence treatment with isoxadifen-ethyl; type: in vivo; details: 74 days after application
From the text: as §1, §2, §3

winter oilseed rape = assay: Field trial: grain yield effects on winter oilseed rape, sequential application of isoxadifen; type: in vivo
From the text: as §1, §2, §3, §4

sugarbeets [5] = assay: Field trial: emergence of sugarbeets, seed treatment with isoxadifen; type: in vivo, sugarbeet; details: seed treatment 0.015 mg ai/seed
From the text: as §1, §2, §3, §4

[6] = grain yield relative to UTC (100%), 100 g ai/ha post-emergence
[7] = grain yield, 100 g ai/ha post-emergence

With `CC(C)(C)C(O)(CCc1ccc(Cl)cc1)Cn1cncn1` (stereo not drawn) [TBC, tebuconazole] the Relative % ([1]; grain yield relative to UTC (100%), canola, TBC 150, IDF-Et 100 g ai/ha) was 101.8%, the “Difference(%) vs. UTC” value ([1]; grain yield, canola, TBC 150, IDF-Et 100 g ai/ha) was “+1.8%” and the Yield ([1]; spring oilseed rape (canola), TBC 150 g ai/ha, IDF-Et 100 g ai/ha, post-emergence spring, beginning of flowering, grain yield at harvest) was 3.98 t/ha.

In the case of `CCOC(=O)C1=NOC(c2ccccc2)(c2ccccc2)C1` [IDF-Et, ethyl 5,5-diphenyl-2-isoxazolinecarboxylate], the Yield (corn; 0.5 g ai/kg seed fb 3 × 50 g ai/ha post (2-4, 6-8, 10-12 leaves), grain yield at harvest, 72 days after application) is reported as 10.80 t/ha, the Relative (corn; grain yield relative to UTC (100%), 0.5 g ai/kg seed fb 3 × 50 g ai/ha post) is reported as 124% and the “Difference(%) vs. UTC” value (corn; grain yield, 0.5 g ai/kg seed fb 3 × 50 g ai/ha post) is reported as “+24%”. For the same molecule, the Relative % (spring wheat [2]; grain yield relative to UTC (100%), seed treatment 0.5 g ai/kg seed) was 108.7%, the “Difference(%) vs. UTC” value (spring wheat [2]; grain yield, seed treatment 0.5 g ai/kg seed) was “+8.7%” and the Yield (spring wheat [2]; seed treatment 0.5 g ai/kg seed (prior planting), grain yield at harvest) was 6.58 t/ha. For the same molecule, the “Sugar Yield” value (sugarbeets [3]; 0.015 mg ai/seed fb 3 × 50 g ai/ha post (2-4, 6-8, 10-12 leaves), sugar yield by weight at harvest, 162 days after application) was 6.19 t/ha, the Relative (sugarbeets [3]; sugar yield relative to UTC (100%), 0.015 mg ai/seed fb 3 × 50 g ai/ha post) was 108.6% and the “Difference(%) vs. UTC” value (sugarbeets [3]; sugar yield, 0.015 mg ai/seed fb 3 × 50 g ai/ha post) was “+8.6%”. The Yield (sugarbeet; 0.015 mg ai/seed fb 3 × 50 g ai/ha post (2-4, 6-8, 10-12 leaves), yield of beets by weight at harvest, 162 days after application) was 65.3 t/ha, the Relative (sugarbeet; beet yield relative to UTC (100%), 0.015 mg ai/seed fb 3 × 50 g ai/ha post) was 111.2% and the “Difference(%) vs. UTC” value (sugarbeet; beet yield, 0.015 mg ai/seed fb 3 × 50 g ai/ha post) was “+11.2%”. For the same molecule, the Yield (winter wheat; 100 g ai/ha post-emergence spring, beginning of stem elongation, grain yield at harvest) was 8.09 t/ha, the Relative % (winter wheat; [6]) was 109.0% and the “Difference(%) vs. UTC” value (winter wheat; [7]) was “+9%”. The Yield (spring wheat [4]; 100 g ai/ha post-emergence spring, flag leaf/beginning of ear heading, grain yield at harvest) was 7.67 t/ha, the Relative % (spring wheat [4]; [6]) was 113.2% and the “Difference(%) vs. UTC” value (spring wheat [4]; [7]) was “+13.2%”.

`O=C(O)C1=NOC(c2ccccc2)(c2ccccc2)C1` [IDF, 5,5-diphenyl-2-isoxazolinecarboxylic acid] was tested, and the Yield (winter oilseed rape; 3 g ai/kg seed fb 3 × 50 g ai/ha post (4-6 leaves, stem elongation, beginning of flowering), grain yield at harvest, 102 days after application) was 2.63 t/ha, the Relative (winter oilseed rape; grain yield relative to UTC (100%), 3 g ai/kg seed fb 3 × 50 g ai/ha post) was 105% and the “Difference(%) vs. UTC” value (winter oilseed rape; grain yield, 3 g ai/kg seed fb 3 × 50 g ai/ha post) was “+5%”. For the same molecule, the plants/18 row meters (sugarbeets [5]; emergence of sugarbeets, counting 28 days after planting) was 74 plants/18 row meters, the Relative (sugarbeets [5]; emergence relative to UTC (100%), sugarbeets, 28 days after planting) was 113.8% and the “Difference(%) vs. UTC” value (sugarbeets [5]; emergence, sugarbeets, 28 days after planting) was “+13.8%”.
